# Measurements from patent US20190343780A1, “LOW DOSE DRUG COMBINATIONS FOR USE IN PREVENTING AND TREATING NEURONAL DAMAGE” (priority 2016, published 2019).
# Where two headings read alike, the source gives them in different places.
# What was measured:
# [1] = test system: rats with hemic hypoxia (sodium nitrite); assay: Hemic hypoxia in rats (sodium nitrite 80 mg/kg I.M.), treatment I.M.; format: in vivo, rat; details: for ED50: Rattus norvegicus, im; for ED50 / Dose with significant anti-hypoxic effect: combination: memantine dose; for Dose with significant anti-hypoxic effect: text summary of Table 1 (hemic and asphyctic hypoxia)
# Protocol: (§1) Rats were intra-muscularly (I.M.) administered with 80 mg/kg sodium nitrite to achieve hemic hypoxia (Serdiuk et al., Eksp. Klin. Farmakol., 2000, Vol. 63(6), pages 3-8). Mice were caged in a 100 cm^3 sealed glass chamber to achieve asphyctic hypoxia, which simulates cerebral ischemia (Serdiuk et al., Eksp. Klin. Farmakol., 2000, Vol. 63(6), pages 3-8; Khalili et al., Eur. Rev. Med. Pharmacol. Sci., 2015, Vol. 19(17), pages 3282-3285).
# (§2) Rats and mice were treated as in Example 1.
# [2] = test system: mice with asphyctic hypoxia; assay: Asphyctic hypoxia in mice (sealed 100 cm^3 glass chamber), treatment I.P.; format: in vivo; details: for ED50: Mus musculus, ip, Dose increasing the life of mice by 50%, combination: memantine dose, read-out: Asphyctic hypoxia (ED50), mg/kg, I.P. admin.
# Protocol: as §1, §2
# [3] = test system: mice, toxic stimulation of NMDA receptors of brain
# Protocol: Mice were I.P. administered with 250 mg/kg N-Methyl-D-aspartic acid (NMDA), a neurotoxin causing clonic-tonic seizure and death in 100% of animals by toxic stimulating of NMDA receptors of brain (Leander et al., Brain Res., 1988, Vol. 448 (1), pages 115-120). Rats were I.M. administered with 12 mg/kg Kainic acid to achieve chronic kainate degeneration of the brain by stimulation of AMPA/kainate receptors (Serdyuk et al., Bull. Exp. Biol. Med., 2014, Vol. 157(1), pages 15-17). Chronic kainate degeneration leads to chronic kainate lethality, neurologic disturbances and large weight loss (Serdyuk et al., Bull. Exp. Biol. Med., 2014, Vol. 157(1), pages 15-17).
# Animals were then treated with deionized water (control), memantine, epinephrine or combinations of memantine and epinephrine, which were I.P. or I.M administered, as indicated.
# Rats were treated as in Example 3.
# [4] = test system: rats with chronic kainate degeneration of the brain (AMPA/kainate receptors); assay: Chronic kainate degeneration in rats (kainic acid 12 mg/kg I.M.), treatment I.M.; format: in vivo, rat; details: for Chronic Kainate lethality in rats (%) / Rats with heavy neurologic disturbances (%) / Rats with large weight loss (%): I.M.; for Chronic Kainate lethality in rats (%): 2 weeks after kainate; for Rats with heavy neurologic disturbances (%): score 3 to 5 points; for Dose with significant neuroprotective effect: text summary of Table 3 (NMDA lethality and kainate degeneration)
# Protocol: Table 3 summarizes the neuroprotective effect of such treatments.
# Rats were treated as in Example 3. Table 4 summarizes the neuroprotective effect of such treatments.
# [5] = test system: rats with hemic hypoxia (sodium nitrite); assay: Hemic hypoxia in rats (sodium nitrite 80 mg/kg), oral treatment; format: in vivo, rat; details: 40 minutes before sodium nitrite
# Protocol: Table 5 summarizes the anti-hypoxic and neuroprotective effects of such treatments.
# Rats were treated as in Example 5. Table 6 summarizes the neuroprotective effect of such treatments.
# [6] = test system: rats with chronic kainate degeneration of the brain (AMPA/kainate receptors); assay: Chronic kainate degeneration in rats (kainic acid 12 mg/kg), oral treatment; format: in vivo, rat; details: for Chronic kainate lethality in rats, % per group: 2 weeks after kainate; for Rats with heavy neurological diseases (%): score 3 to 5 points; for ED50: Rattus norvegicus
# Protocol: Rats were either orally administered with 80 mg/kg sodium nitrite to achieve hemic hypoxia, as explained In Example 1, or with 12 mg/kg Kainic acid to achieve chronic kainate degeneration of the brain by stimulation of AMPA/kainate receptors.
# [7] = test system: rats with focal cerebral ischemia; details: cited from earlier work
# [8] = cited from earlier work
# [9] = intravenous injection during the first 12 hours after stroke, cited from earlier work
# [10] = Dose increasing the life of rats by 50%, read-out: Hemic hypoxia (ED50), mg/kg, I.M. admin.
# [11] = text summary of Table 2, span over hemic and asphyctic hypoxia, read-out: ED50, anti-hypoxic effect
# [12] = Dose 5 mg/kg (combination: memantine dose)
# [13] = Dose 10 mg/kg (combination: memantine dose)
smiles,measurement,setting,value
"CNC[C@H](O)c1ccc(O)c(O)c1 [Epinephrine, epinephrine]","Hemic hypoxia, rat life duration (min), I.M. admin.",[1]; Dose 0.01 mg/kg,63 ± 7 ^ min
same,"Hemic hypoxia, rat life duration (min), I.M. admin.",[1]; Dose 0.02 mg/kg,69 ± 8 ^ min
same,"Hemic hypoxia, rat life duration (min), I.M. admin.",[1]; Dose 0.1 mg/kg,113 ± 16 ^2 min
same,"Hemic hypoxia, rat life duration (min), I.M. admin.",[1]; Dose 0.2 mg/kg,122 ± 19 ^2 min
same,ED50,[1]; [10],0.06 ± 0.01 mg/kg
same,ED50,[1]; [11],0.06 to 0.12 mg/kg
same,Dose with significant anti-hypoxic effect,[1],≥ 0.1 mg/kg
same,"Asphyctic hypoxia, mice life duration (sec), I.P. admin.",[2]; Dose 0.01 mg/kg,711 ± 79 s
same,"Asphyctic hypoxia, mice life duration (sec), I.P. admin.",[2]; Dose 0.02 mg/kg,750 ± 90 s
same,"Asphyctic hypoxia, mice life duration (sec), I.P. admin.",[2]; Dose 0.1 mg/kg,990 ± 123 s
same,"Asphyctic hypoxia, mice life duration (sec), I.P. admin.",[2]; Dose 0.2 mg/kg,1250 ± 155 ^1 sec
same,ED50,[2],0.12 ± 0.02 mg/kg
same,"Acute NMDA lethality in mice (%), I.P. admin.",[3]; Dose 0.01 mg/kg,100 ^ %
same,"Acute NMDA lethality in mice (%), I.P. admin.",[3]; Dose 0.02 mg/kg,100 ^ %
same,"Acute NMDA lethality in mice (%), I.P. admin.",[3]; Dose 0.1 mg/kg,30 ^1%
same,"Acute NMDA lethality in mice (%), I.P. admin.",[3]; Dose 0.2 mg/kg,10 ^2%
same,Chronic Kainate lethality in rats (%),[4]; Dose 0.01 mg/kg,90%
same,Rats with heavy neurologic disturbances (%),"[4]; Dose 0.01 mg/kg, 7-14 days after kainate",100 ^ %
same,Rats with large weight loss (%),"[4]; Dose 0.01 mg/kg, underweight more than 30%, 7-14 days after kainate",100 ^ %
same,Chronic Kainate lethality in rats (%),[4]; Dose 0.02 mg/kg,80%
same,Rats with heavy neurologic disturbances (%),"[4]; Dose 0.02 mg/kg, 7-14 days after kainate",90 ^ %
same,Rats with large weight loss (%),"[4]; Dose 0.02 mg/kg, underweight more than 30%, 7-14 days after kainate",80 ^ %
same,Chronic Kainate lethality in rats (%),[4]; Dose 0.1 mg/kg,20 ^1%
same,Rats with heavy neurologic disturbances (%),"[4]; Dose 0.1 mg/kg, 7-14 days after kainate",30 ^1%
same,Rats with large weight loss (%),"[4]; Dose 0.1 mg/kg, underweight more than 30%, 7-14 days after kainate",20 ^2%
same,Chronic Kainate lethality in rats (%),[4]; Dose 0.2 mg/kg,0 ^2%
same,Rats with heavy neurologic disturbances (%),"[4]; Dose 0.2 mg/kg, 7-14 days after kainate",10 ^2%
same,Rats with large weight loss (%),"[4]; Dose 0.2 mg/kg, underweight more than 30%, 7-14 days after kainate",0 ^2%
same,Dose with significant neuroprotective effect,[4]; combination: memantine dose,≥ 0.1 mg/kg
"CC12CC3CC(C)(C1)CC(N)(C3)C2 [Memantine, memantine]","Hemic hypoxia, rat life duration (min), I.M. admin.",[1]; [12],63 ± 5 ^ min
same,"Hemic hypoxia, rat life duration (min), I.M. admin.",[1]; [13],77 ± 8 ^ min
same,"Hemic hypoxia, rat life duration (min), I.M. admin.",[1]; Dose 20 mg/kg,86 ± 9 ^1 min
same,ED50,[1]; [10],18.2 ± 2.3 mg/kg
same,ED50,[1]; [11],18 to 20 mg/kg
same,Dose with significant anti-hypoxic effect,[1],20 mg/kg
same,"Asphyctic hypoxia, mice life duration (sec), I.P. admin.",[2]; [12],850 ± 80 s
same,"Asphyctic hypoxia, mice life duration (sec), I.P. admin.",[2]; [13],936 ± 93 s
same,"Asphyctic hypoxia, mice life duration (sec), I.P. admin.",[2]; Dose 20 mg/kg,1070 ± 114 ^1 sec
same,ED50,[2],19.9 ± 2.8 mg/kg
same,"Acute NMDA lethality in mice (%), I.P. admin.",[3]; [12],100 ^ %
same,"Acute NMDA lethality in mice (%), I.P. admin.",[3]; [13],60 ^ %
same,"Acute NMDA lethality in mice (%), I.P. admin.",[3]; Dose 20 mg/kg,16 ^1%
same,Chronic Kainate lethality in rats (%),[4]; [12],90%
same,Rats with heavy neurologic disturbances (%),"[4]; Dose 5 mg/kg (combination: memantine dose), 7-14 days after kainate",90 ^ %
same,Rats with large weight loss (%),"[4]; Dose 5 mg/kg (combination: memantine dose), underweight more than 30%, 7-14 days after kainate",90 ^ %
same,Chronic Kainate lethality in rats (%),[4]; [13],70%
same,Rats with heavy neurologic disturbances (%),"[4]; Dose 10 mg/kg (combination: memantine dose), 7-14 days after kainate",80 ^ %
same,Rats with large weight loss (%),"[4]; Dose 10 mg/kg (combination: memantine dose), underweight more than 30%, 7-14 days after kainate",70 ^ %
same,Chronic Kainate lethality in rats (%),[4]; Dose 20 mg/kg,40 ^1%
same,Rats with heavy neurologic disturbances (%),"[4]; Dose 20 mg/kg, 7-14 days after kainate",50 ^1%
same,Rats with large weight loss (%),"[4]; Dose 20 mg/kg, underweight more than 30%, 7-14 days after kainate",40 ^1%
same,ED50,"[4]; Rattus norvegicus, im, read-out: Dose reducing the number of rats with a large deficit of weight by 50% (ED50), mg/kg, I.M. admin., underweight more than 30%, 7-14 days after kainate, combination: memantine dose",17.6 ± 2.4 mg/kg
same,Dose with significant neuroprotective effect,[4]; combination: memantine dose,20 mg/kg
same,"Hemic hypoxia, life of rats (min), Oral admin.",[5]; [12],62 ± 7 min
same,"Hemic hypoxia, life of rats (min), Oral admin.",[5]; [13],65 ± 9 min
same,"Hemic hypoxia, life of rats (min), Oral admin.",[5]; Dose 20 mg/kg,73 ± 11 min
same,"Chronic kainate lethality in rats, % per group","[6]; Dose 5 mg/kg (combination: memantine dose), oral",90%
same,Rats with heavy neurological diseases (%),"[6]; Dose 5 mg/kg (combination: memantine dose), oral, 7-14 days after kainate",90%
same,Rats with large weight loss (%),"[6]; Dose 5 mg/kg (combination: memantine dose), oral, underweight more than 30%, 7-14 days after kainate",90%
same,"Chronic kainate lethality in rats, % per group","[6]; Dose 10 mg/kg (combination: memantine dose), oral",80%
same,Rats with heavy neurological diseases (%),"[6]; Dose 10 mg/kg (combination: memantine dose), oral, 7-14 days after kainate",80%
same,Rats with large weight loss (%),"[6]; Dose 10 mg/kg (combination: memantine dose), oral, underweight more than 30%, 7-14 days after kainate",70%
same,"Chronic kainate lethality in rats, % per group","[6]; Dose 20 mg/kg, oral",60% ^3
same,Rats with heavy neurological diseases (%),"[6]; Dose 20 mg/kg, oral, 7-14 days after kainate",70%
same,Rats with large weight loss (%),"[6]; Dose 20 mg/kg, oral, underweight more than 30%, 7-14 days after kainate",60% ^3
same,ED50,"[6]; read-out: Dose decreasing the number of rats with large weight loss by 50% (ED50), mg/kg, Oral admin., underweight more than 30%, 7-14 days after kainate, combination: memantine dose",18.8 ± 2.4 mg/kg
same,ED50,"[6]; text summary of Table 6, span over hemic hypoxia and kainate endpoints, oral, combination: memantine dose, read-out: ED50, anti-hypoxic and neuroprotective effects",18 to 20 mg/kg
same,Dose with significant neuroprotective effects,"[6]; text summary of Table 5, oral, combination: memantine dose",20 mg/kg
same,Effect on brain injury and neurological disorders,"[7]; prophylactic administration, 20 mg/kg",prevented injury of the brain and reduced neurological disorders
same,Neurological and cognitive function of stroke patients,"[8]; 20 mg for 6 months, subacute and recovery phase of stroke",significantly improved neurological and cognitive function
same,Side effects of prolonged use at a high dose,"[8]; prolonged use, high dose","development of agitation, insomnia, irritability, and psychosis"
"CNC[C@H](O)c1cccc(O)c1 [Phenylephrine, phenylephrine]","Hemic hypoxia, life of rats (min), Oral admin.",[5]; Dose 0.02 mg/kg,60 ± 7 min
same,"Hemic hypoxia, life of rats (min), Oral admin.",[5]; Dose 0.05 mg/kg,62 ± 9 min
same,"Hemic hypoxia, life of rats (min), Oral admin.",[5]; Dose 0.1 mg/kg,67 ± 10 min
same,"Hemic hypoxia, life of rats (min), Oral admin.",[5]; Dose 0.5 mg/kg,77 ± 12 min
same,"Hemic hypoxia, life of rats (min), Oral admin.",[5]; Dose 1.0 mg/kg (combination: memantine dose),88 ± 14 ^1 min
same,Cerebral blood flow,[9],significant improvement in cerebral blood flow
same,Blood pressure after induced hypertension,[9]; from 100-110 mm,160-170 mm
same,Effect on infarction and neurological damage,[7]; intravenous administration before ligation of the middle cerebral artery,prevented infarction development and reduced neurological damage
